Literature values in patent publication US20090325888A1, “Peptides having a health benefit and compositions comprising them” (priority 2005, published 2009).

Legend:
ACE = ACE (Homo sapiens, UniProt P12821)
hypertensive humans = details: in sour milk, Hata 1996

Sequence of ACE (P12821 30-1306, species assumed): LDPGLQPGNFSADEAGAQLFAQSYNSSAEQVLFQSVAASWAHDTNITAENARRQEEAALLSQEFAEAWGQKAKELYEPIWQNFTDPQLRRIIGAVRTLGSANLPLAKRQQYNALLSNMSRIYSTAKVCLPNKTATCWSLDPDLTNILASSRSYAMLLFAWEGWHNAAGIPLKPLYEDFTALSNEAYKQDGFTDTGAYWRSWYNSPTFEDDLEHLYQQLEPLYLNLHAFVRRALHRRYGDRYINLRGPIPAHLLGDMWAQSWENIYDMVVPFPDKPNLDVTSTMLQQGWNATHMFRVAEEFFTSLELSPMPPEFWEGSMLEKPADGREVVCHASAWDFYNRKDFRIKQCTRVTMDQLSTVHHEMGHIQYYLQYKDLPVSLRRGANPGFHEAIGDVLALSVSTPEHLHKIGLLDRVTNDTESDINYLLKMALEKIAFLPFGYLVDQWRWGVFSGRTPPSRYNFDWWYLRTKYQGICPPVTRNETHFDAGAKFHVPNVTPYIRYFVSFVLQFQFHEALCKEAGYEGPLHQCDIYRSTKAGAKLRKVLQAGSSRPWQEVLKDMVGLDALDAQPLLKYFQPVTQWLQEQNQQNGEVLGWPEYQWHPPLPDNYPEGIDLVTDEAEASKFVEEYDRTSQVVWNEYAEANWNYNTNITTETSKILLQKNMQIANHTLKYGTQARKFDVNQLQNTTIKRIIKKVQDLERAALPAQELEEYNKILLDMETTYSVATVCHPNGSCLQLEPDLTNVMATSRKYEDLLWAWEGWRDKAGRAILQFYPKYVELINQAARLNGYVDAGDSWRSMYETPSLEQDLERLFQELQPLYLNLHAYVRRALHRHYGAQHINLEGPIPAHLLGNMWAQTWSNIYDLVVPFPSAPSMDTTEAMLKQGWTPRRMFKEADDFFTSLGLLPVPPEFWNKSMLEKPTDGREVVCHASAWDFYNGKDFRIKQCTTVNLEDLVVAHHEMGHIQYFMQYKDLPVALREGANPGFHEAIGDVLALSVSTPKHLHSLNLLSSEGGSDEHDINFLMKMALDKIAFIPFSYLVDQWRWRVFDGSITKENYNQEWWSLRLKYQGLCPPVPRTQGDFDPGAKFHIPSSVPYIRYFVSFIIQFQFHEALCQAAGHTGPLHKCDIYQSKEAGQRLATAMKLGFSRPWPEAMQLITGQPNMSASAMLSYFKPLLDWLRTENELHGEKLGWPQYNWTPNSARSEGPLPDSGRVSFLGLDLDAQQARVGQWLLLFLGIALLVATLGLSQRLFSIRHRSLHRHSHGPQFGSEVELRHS

in vitro ACE inhibition (ACE; peptides in fermented milk products) | IC50 (ACE; Nakamura 1995, Aryoshi 1993, read-out: IC50 values reported earlier as ACEI peptides) | Compound | blood pressure lowering effect (hypertensive humans)
in vitro ACE inhibition | – | CC[C@H](C)[C@H](N)C(=O)N1CCC[C@H]1C(=O)N1CCC[C@H]1C(=O)O [IPP] | blood pressure lowering effect
– | 9.6 µM | LPP: known ACE inhibiting tripeptide, β-casein f151-153 (UniProt P02666 166-168, looked up, fragment) | –
